Data reported in PMC9834611 (Pharmacology Research & Perspectives, 2023).
Like-named read-outs stand apart in the source and are kept apart here.

What was measured:
[1] = Mouse PBPK model simulations and model parameters
Description: This model thus aims to elucidate the implications of drug pharmacokinetics and mechanisms of distribution, ultimately providing a modeling base for extrapolation of simulated concentration profiles to clinical settings. The primary drivers of vinca disposition are fraction unbound drug to plasma proteins, intercellular tubulin binding, metabolism, and ABCB1‐mediated transport. With exception to the brain, tissue compartments are defined by a well‐stirred, flow‐limited model in which the concentration of drug leaving the compartment is equal to the unbound drug concentration within the tissue. The blood–brain barrier (BBB) is distinctive as the tight junctions and prolific expression of efflux transporter proteins provide a highly restrictive barrier to many lipophilic molecules. The brain is thus defined by a permeability‐limited model dictated by a modification of Fick's Law of diffusion in which the permeability‐surface area product constitutes the tissue permeation coefficient, the capillary surface area permitting diffusion, and the thickness of the cellular membrane.[32] ABCB1 is highly expressed at the blood–brain barrier as well as in the liver, gut, and kidneys, facilitating drug excretion.[14], [15]
Physiological parameters for tissue‐specific percent body weight and cardiac output for mouse, canine, and human were sourced from Brown et al.[27] and presented in Table 1. All tissue densities were approximated to be 1 kg/L. Cardiac output for respected species was estimated using a previously derived allometric scaling relationship for unanesthetized mice.[33] […] The rate of change in the amount of drug within generic, non‐eliminating compartments is governed by the following mass balance equation: (1) dAC/dt=VC×dCC/dt=QC×CA−CVT where AC is the amount of drug in the tissue, VC is the volume of the tissue (assuming static volume), CC is the concentration within the tissue, QC is the tissue perfusion rate, CA is the arterial blood drug concentration, and CVT is the venous blood drug concentration.
Tissue‐specific‐binding capacities, BC , were obtained from studies where tubulin concentrations were determined from tubulin‐binding capacities for colchicine[12] and are reported in Table 2. […] Relative tissue tubulin‐binding capacities were thus assumed to be equivalent for the mouse, dog, and human PBPK model developed herein. […] Partition coefficients, PC , for respective tissues were determined by performing parameter optimization in MATLAB's tool, SimBiology, using a nonlinear least squares regression estimation method from the optimization toolbox. The statistical modeling method fit pooled Mdr1a/b (−/−) tissue data generating one set of partition parameters for all tissues which are reported in Table 1.
The transfer of drugs at the BBB is unique as the mass transfer out of the vascular space surrounding the brain tissue is hindered by a permeability barrier.

in vitro = conditions: female, CD-1, mouse, liver microsomes
[2] = Human PBPK model Monte Carlo simulation and model parameters
[3] = tested on: plasma proteins, primarily alpha‐1 acid glycoprotein; conditions: cited from earlier work
ABCB1 = ABCB1 transport Vmax optimized to in vivo canine PK data; conditions: dog and human models
Description: The transfer of drugs at the BBB is unique as the mass transfer out of the vascular space surrounding the brain tissue is hindered by a permeability barrier. […] Coupling the ABCB1 transport equations as expressed above with permeability‐limited modeling equations from Choi et al.,[23] the following equations are proposed where Equation ( 4 ) describes the amount of drug within the brain tissue and Equation ( 5 ) describes the amount of drug in the vascular space surrounding the tissue: (4) VCNS*dCCNS,T/dt=PSA×CA−CCNS,V−sfABCB1,CNS×VCNS×VMAXABCB1×CCNS,V/KMABCB1+CCNS,V (5) VBB*dCBB/dt=QCNS*CA−CV−PSA×CA−CV,CNA+sfCNS×VCNS×VMAXABCB1×CCNS,V/KMABCB1+CCNS,V where VCNS is the volume of the brain tissue, VBB is the volume consisting of brain blood, CCNS,T is the concentration of drug in the brain tissue, PSA is the permeability surface area product, sfABCB1,CNS is the relative ABCB1 expression in brain tissue, and CBB is the concentration of drug in the brain blood. VCNA and VBB were set to 97% and 3% of total brain volume, respectively.[37] […] The parameter optimization method was conducted as described previously with nonlinear least squares regression. […] The corresponding Vmax,ABCB1 value was optimized to in vivo canine PK data. […]

[4] = Canine PBPK model Monte Carlo simulation and model parameters; conditions: dog model
[5] = cited from earlier work; for t1/2: Obs
[6] = mouse model, optimized to mouse mdr1a/b (−/−) data
[7] = bone marrow, optimized to mouse mdr1a/b (−/−) data
[8] = optimized to mouse mdr1a/b (−/−) data

In the case of `CC[C@]1(O)C[C@@H]2CN(CCc3c([nH]c4ccccc34)[C@@](C(=O)OC)(c3cc4c(cc3OC)N(C)[C@H]3[C@@](O)(C(=O)OC)[C@H](OC(C)=O)[C@]5(CC)C=CCN6CC[C@]43[C@@H]65)C2)C1` [VBL, Vinblastine], the “Vmbil (biliary transport Vmax)” value ([1]; mdra1a/b (−/−) mouse, optimized to fecal data) is reported as 23.35 nmol/L/h, the “Partition coefficient PCblood” value ([1]; mouse model) is reported as 1.0 and the “Partition coefficient PCBM” value ([1]; mouse model, bone marrow, optimized to mouse mdr1a/b (−/−) data) is reported as 1.0. The “Partition coefficient PCCNS” value [1, 6] was 1.21, the “Partition coefficient PCGut” value [1, 6] was 1.08 and the “Partition coefficient PCKidney” value [1, 6] was 3.73. For the same compound, the “Partition coefficient PCLiver” value [1, 6] was 2.26, the Km at 5 min (in vitro) was 11.6 µM and the “Partition coefficient PCblood” value [2] was 1.0. The “Partition coefficient PCBM” value [2, 7] was 1.0, the “Partition coefficient PCCNS” value [2, 8] was 1.21 and the “Partition coefficient PCGut” value [2, 8] was 1.08. For the same compound, the “Partition coefficient PCKidney” value [2, 8] was 3.73, the “Partition coefficient PCLiver” value [2, 8] was 2.26 and the “percentage of drug bound to plasma proteins” value [3] was 48–99%. The “Protein binding (range)” value ([3]; value used in dog model) was 48–99%, the “Protein binding (range)” value ([3]; value used in human model) was 48–99% and the “Protein binding (range)” value ([3]; value used in mouse model) was 48–99%. The VmABCB1 (ABCB1; optimized to in vivo canine PK data) was 64.54 nmol/L/h, the “Vmbil (biliary transport Vmax)” value (ABCB1; set equivalent to ABCB1 value) was 64.54 nmol/L/h and the “Partition coefficient PCblood” value [4] was 1.0. The “Partition coefficient PCBM” value [4, 7] was 1.0, the “Partition coefficient PCCNS” value [4, 8] was 1.21 and the “Partition coefficient PCGut” value [4, 8] was 1.08. The “Partition coefficient PCKidney” value [4, 8] was 3.73, the “Partition coefficient PCLiver” value [4, 8] was 2.26 and the t1/2 ([5]; Study 1: IV bolus 0.23 ± 0.08 mg/kg) was 10.99 h. For the same compound, the AUCt ([5]; Study 2: non‐small cell lung cancer, IV bolus 0.083 ± 0.009 mg/kg prior to Cisplatin infusion, n 8, Obs) was 163 ± 62 h x nM, the t1/2 ([5]; Study 3: IV bolus 0.2 mg/kg) was 19.7 h and the AUCt ([5]; Study 3: metastatic hypernephroma, IV bolus 0.2 mg/kg, n 1, Obs) was 141 h x nM.
